Measured values from patent EP1276895B1, “METHOD FOR THE IDENTIFICATION OF ACTIVE SITE PROTEASE INACTIVATORS” (THE UNIVERSITY OF GEORGIA RESEARCH FOUNDATION, INC., priority 2000, dated 2001).
Residues, ends and D or L forms follow the SMILES beside them. *: point of attachment. AFC = O=c1cc(C(F)(F)F)c2ccc(N*)cc2o1; Cbz = O=C(OCc1ccccc1)*

Assays:
Assay type in all cases: biochemical
[1] = system: purified cysteine protease of Taenia solium; test: Human IgG degradation inhibition test, western blot (Step IV), purified enzyme; conditions: 18 hrs, 37°C, E 64 10^-6 M, vehicle 10^-3 M
Method: To conduct this assessment, a western blot was performed. IgG digestion was detected by incubating 20 ul of T. solium purified enzyme or T. so/ium extract with 1 ug of human IgG (Sigma, St. Louis) in a final volume of 100 ul of assay buffer. Exogenous thiol activation was assessed by incubating the assay in the presence or absence of cysteine. The catalytic class of the IgG protease was determined by pre-incubating the following proteinase inhibitors at their active concentrations, with the enzyme: E 64 (10^-6 M, cysteine proteinases), phenylmethylsulfonyl fluoride (PMSF) (10^-3 M, serine proteinases), pepstatin A (10^-6 M, aspartic proteinases), and 1,10 phenanthroline (10^-3 M, metalloproteinases), and the vehicle, Mu-Leu-Tyr-AFC (10^-3 M). After addition of IgG, the assay was incubated overnight (37°C, 18 hrs). Subsequently, 100 ul of the mixture was boiled in sodium dodecyl sulfate polyacrylamide gel electrophoresis (SDS-PAGE) sample buffer with 2% 2-mercaptoethanol, separated by 12.5% SDS-PAGE, and blotted onto a polyvinylidene difluoride membrane. Tris buffered saline containing 0.1% bovine serum albumin and 0.05% Tween 20 (TBS-BSA) was used to block nonspecific binding. […]

Taenia solium crude mix = test: Substrate cleavage screen of AFC-linked synthetic substrates (Step II), crude mix; conditions: 0.4 M Citrate pH 4.9, 18 h, 37 °C
Method: In order to prepare the Taenia solium "crude mix", dry frozen Taenia solium cysts were obtained from 6-12 month old cysticercotic pigs from villages in an endemic area of porcine cysticercosis in Mexico. Metacestodes were carefully dissected from the parasitized tissues, washed three times with PBS, and lyophilized. Parasite extracts were prepared by suspending 0.1 grams of dry frozen cysts in 10 ml of extraction buffer (0.4 M citrate, pH 4.9). The cysts were vortexed for three five-minute intervals with intermittent incubations (5 min) at 4 °C. Particulate material was removed by centrifugation (20,000 x g, 120 min) and the resulting soluble fraction filtered ([…]). In assay buffers, the detectable amount of the crude mix, as described above, was employed and incubated with the target substrates.
(§1) Vmax was calculated for the cleavage of substrates by the purified target protease and Vmax was calculated for substrates cleaved by the crude mix protease using conventional kinetic modeling calculations already described in the art.
Similar steps were employed here as they are for the purified protease. As will be noted, similar conclusions were noted on the identification of the protease inhibitor on the crude mix, and the identical hypothesis was derived (Fig. 4b). It is notable that the most cleaved substrates were Z-FR-AFC, Z-FAR-AFC, Z-AAK-AFC, AP-AFC, Z-VLR-AFC, respectively. This cleavage pattern, noted along with others, was highly similar to the cleavage pattern due to the purified protease. […] Moreover, non-cleaved substrates were also highly similar, although there were subtle variations in relative cleavage for the non-cleaved substrates. However, this would be expected as fluorometric readings will tend to have subtle variation at lower readings due to background effects.

[2] = system: purified Taenia solium cysteine protease; test: Substrate cleavage screen of AFC-linked synthetic substrates (Step II), purified protease; conditions: 1 ug purified protease, 1 ug substrate, Citrate pH 4.9 with 0.01 M cysteine, 18 h, 37 °C
Method: In this step, the most efficacious substrate for detection of the cysteine protease (high Kcat substrate) was determined in vitro along with those substrates which were not well cleaved (low kcat substrates). From this point forth, the following conditions refer to all assays: "assay buffer" refers to 0.4 M Citrate, pH 4.9 (the pH optima of the protease). Incubation time was 18 hours at 37°C. These conditions were determined by our preliminary data to be best for kinetic evaluation of the protease. […] The experiments were conducted in […] Borosilicate mini-culture tubes (Fisher Scientific), and a fluorometer (Turner) was employed for detection of AFC cleavage.
Approximately 1 ug (or a proteolytically detectable amount) of the purified target cysteine protease was incubated individually, with 1 ug of each of the available substrates in 500 uL of assay buffer. During this setup, the substrate was pre-incubated in the assay buffer for a short period of time (20 minutes) in order to reach an equilibrated status before the addition of the protease. Cleavage assessments were based upon the property of the protease to cleave synthetic peptide substrates linked at the C-terminus to 7-Amino-4-Trifluoromethyl Coumarin (AFC) as previously described. AFC linked tripeptides, dipeptides, and monopeptides, (with a variety of permutations at P3-P1) were available from Enzyme Systems Products (Livermore, CA), and were used as the source of the subset. Following incubation of enzyme preparations overnight (18 h, 37 °C) with peptide in assay buffer (Citrate, pH 4.9, supplemented with 0.01 M cysteine), free AFC concentrations were measured fluorometrically (excitation 405 nm, emission 505 nm). The proteolytic cleavage released the AFC group, which was measurable as a free molecule by a standard fluorometer and converted into molar quantities, based upon a previously established standard curve. The simplicity of AFC detection by the fluorometer was a key factor which quickened and simplified the procedures.
In the assay, 1 ug of the purified Taenia cysteine protease was added to a saturating amount of Z-Phe-Arg-AFC (4X10^-5 M) in assay buffer. The experiment was conducted in triplicate and repeated at least 5 times until we were certain that variability in AFC cleavage was not statistically significant.
as §1

In the case of `CC(C)CC(NC(=O)C1OC1C(=O)O)C(=O)NCCCCNC(=N)N` (stereo not shown) [E64, reference compound], the “inhibition of cleavage of human IgG” value [1] was “Inhibition was noted”.

In the case of `C[C@H](NC(=O)OCc1ccccc1)C(=O)N[C@@H](C)C(=O)N[C@@H](CCCCN)C(=O)Nc1ccc2c(C(F)(F)F)cc(=O)oc2c1` [Z-AAK-AFC] (Cbz-Ala-Ala-Lys-{AFC}), the “cleavage of AFC-linked substrate (Vmax)” value (Taenia solium crude mix) was “most cleaved”.

For `C[C@H](NC(=O)[C@H](Cc1ccccc1)NC(=O)OCc1ccccc1)C(=O)N[C@@H](CCCNC(=N)N)C(=O)Nc1ccc2c(C(F)(F)F)cc(=O)oc2c1` [Z-FAR-AFC] (Cbz-Phe-Ala-Arg-{AFC}), the “cleavage of AFC-linked substrate (Vmax)” value (Taenia solium crude mix) was “most cleaved”.

With `N=C(N)NCCC[C@H](NC(=O)[C@H](Cc1ccccc1)NC(=O)OCc1ccccc1)C(=O)Nc1ccc2c(C(F)(F)F)cc(=O)oc2c1` [Z-FR-AFC, Z-Phe-Arg-AFC, reference compound] (Cbz-Phe-Arg-{AFC}) the “cleavage of AFC-linked substrate (Vmax)” value [2] was “cleaved”, the “cleavage of AFC-linked substrate (Vmax)” value ([2]; listed as Z-Phe-Arg-AFC) was “highest Vmax” and the “cleavage of AFC-linked substrate (Vmax)” value (Taenia solium crude mix) was “most cleaved”.

In the case of `CC(C)C[C@H](NC(=O)[C@@H](NC(=O)OCc1ccccc1)C(C)C)C(=O)N[C@@H](CCCNC(=N)N)C(=O)Nc1ccc2c(C(F)(F)F)cc(=O)oc2c1` [Z-VLR-AFC] (Cbz-Val-Leu-Arg-{AFC}), the “cleavage of AFC-linked substrate (Vmax)” value (Taenia solium crude mix) was “most cleaved”.
